pIC50: −log10 of the molar value.
Molecular target: T1, oestrogen receptor (ER) (Homo sapiens, UniProt P03372)
T1 construct: These MVLN cells express, along with the functional oestrogen receptor (ER), a reporter construct; endogenous in cells; host or cells: MVLN cells (MCF7 derivative with ER-responsive luciferase reporter)
T1 sequence (P03372 1-595): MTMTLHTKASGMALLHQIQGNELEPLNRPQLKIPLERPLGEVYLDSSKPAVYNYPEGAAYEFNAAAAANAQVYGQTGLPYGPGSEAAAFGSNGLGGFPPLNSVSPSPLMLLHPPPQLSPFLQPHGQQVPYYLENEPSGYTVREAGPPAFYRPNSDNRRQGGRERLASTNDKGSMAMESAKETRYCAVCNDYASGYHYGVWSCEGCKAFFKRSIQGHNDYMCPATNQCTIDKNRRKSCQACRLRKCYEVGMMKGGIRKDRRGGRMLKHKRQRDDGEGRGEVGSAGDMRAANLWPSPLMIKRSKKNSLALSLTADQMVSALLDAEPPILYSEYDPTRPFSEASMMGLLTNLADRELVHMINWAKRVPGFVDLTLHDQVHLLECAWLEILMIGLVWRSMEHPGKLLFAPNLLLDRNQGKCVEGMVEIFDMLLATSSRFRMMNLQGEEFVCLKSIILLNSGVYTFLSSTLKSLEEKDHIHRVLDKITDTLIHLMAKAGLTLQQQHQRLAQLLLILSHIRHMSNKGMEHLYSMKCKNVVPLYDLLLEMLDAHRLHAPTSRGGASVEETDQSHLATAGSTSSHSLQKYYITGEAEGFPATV
Assay: Anti-oestrogenic action in MVLN cells (inhibition of estradiol-induced luciferase, transactivation antagonism)
Format: cell-based
Conditions: inhibition of estradiol-induced luciferase activity, read-out: Anti-oestrogenic action in vitro: MVLN transactivation antagonism IC50
From the text: The anti-oestrogenic action of the claimed pharmacological compounds was investigated in so-called MVLN cells in vitro. MVLN cells are derivatives of the hormone-responsive MCF7 breast cancer cells known by a person skilled in the art. These MVLN cells express, along with the functional oestrogen receptor (ER), a reporter construct, which under ER-activation expresses luciferase. Determination of the activity of the induced luciferase permits a direct conclusion on the oestrogen properties of substances. To investigate the anti-oestrogenic properties of the pharmacological compounds, they were investigated in the presence of oestrogen for their potential for inhibiting the luciferase signal induced by estradiol.
The claimed pharmacological test substances were investigated in MVLN cells for their anti-oestrogenic potential, as described (see Table 2).

SMILES | pIC50
CN(CCCCCC1=C(c2cccc(O)c2)CCCc2cc(O)ccc21)CCC[S+]([O-])CCCC(F)(F)C(F)(F)F (racemic) [Example 4, 8-(3-Hydroxyphenyl)-9-[5-(methyl{3-[(RS)-(4,4,5,5,5-pentafluoropentyl)sulphinyl]propyl}amino)pentyl]-6,7-dihydro-5H-benzo[7]annulen-3-ol] | 8.52
CN(CCCCCC1=C(c2cccc(O)c2)CCCc2cc(O)ccc21)CCCCC[S+]([O-])CCCC(F)(F)C(F)(F)F (racemic) [Example 8, 8-(3-Hydroxyphenyl)-9-[5-(methyl{5-[(RS)-(4,4,5,5,5-pentafluoropentyl)sulphinyl]pentyl}amino)pentyl]-6,7-dihydro-5H-benzo[7]annulen-3-ol] | 8.10
CN(CCCCCC[S+]([O-])CCCC(F)(F)C(F)(F)F)CCCCCC1=C(c2cccc(O)c2)CCCc2cc(O)ccc21 (racemic) [Example 10, 8-(3-Hydroxyphenyl)-9-[5-(methyl{6-[(RS)-(4,4,5,5,5-pentafluoropentyl)sulphinyl]hexyl}amino)pentyl]-6,7-dihydro-5H-benzo[7]annulen-3-ol] | 8.70
CN(CCCCCCC1=C(c2cccc(O)c2)CCCc2cc(O)ccc21)CCC[S+]([O-])CCCC(F)(F)C(F)(F)F (racemic) [Example 12, 8-(3-Hydroxyphenyl)-9-[6-(methyl{3-[(RS)-(4,4,5,5,5-pentafluoropentyl)sulphinyl]propyl}amino)hexyl]-6,7-dihydro-5H-benzo[7]annulen-3-ol] | 8.70
CN(CCCCCCC1=C(c2cccc(O)c2)CCCc2cc(O)ccc21)CCCC[S+]([O-])CCCC(F)(F)C(F)(F)F (racemic) [Example 14, 8-(3-Hydroxyphenyl)-9-[6-(methyl{4-[(RS)-(4,4,5,5,5-pentafluoropentyl)sulphinyl]butyl}amino)hexyl]-6,7-dihydro-5H-benzo[7]annulen-3-ol] | 8.70
CN(CCCCCCC1=C(c2cccc(O)c2)CCCc2cc(O)ccc21)CCCCC[S+]([O-])CCCC(F)(F)C(F)(F)F (racemic) [Example 16, 8-(3-Hydroxyphenyl)-9-[6-(methyl{5-[(RS)-(4,4,5,5,5-pentafluoropentyl)sulphinyl]pentyl}amino)hexyl]-6,7-dihydro-5H-benzo[7]annulen-3-ol] | 8.70
CN(CCCCCCC1=C(c2cccc(O)c2)CCCc2cc(O)ccc21)CCCCCC[S+]([O-])CCCC(F)(F)C(F)(F)F (racemic) [Example 18, 8-(3-Hydroxyphenyl)-9-[6-(methyl{6-[(RS)-(4,4,5,5,5-pentafluoropentyl)sulphinyl]hexyl}amino)hexyl]-6,7-dihydro-5H-benzo[7]annulen-3-ol] | 8.70
CN(CCCCCCC1=C(c2ccc(O)cc2)CCCc2cc(O)ccc21)CCC[S+]([O-])CCCC(F)(F)C(F)(F)F (racemic) [Example 26, 8-(4-Hydroxyphenyl)-9-[6-(methyl{3-[(RS)-(4,4,5,5,5-pentafluoropentyl)sulphinyl]propyl}amino)hexyl]-6,7-dihydro-5H-benzo[7]annulen-3-ol] | 9.00
CN(CCCCCCC1=C(c2ccc(F)c(O)c2)CCCc2cc(O)ccc21)CCCC[S+]([O-])CCCC(F)(F)C(F)(F)F (racemic) [Example 30, 8-(4-Fluoro-3-hydroxyphenyl)-9-[6-(methyl{4-[(RS)-(4,4,5,5,5-pentafluoropentyl)sulphinyl]butyl}amino)hexyl]-6,7-dihydro-5H-benzo[7]annulen-3-ol] | 8.70

The next lines start with the values.

pIC50 | SMILES
8.52 | CN(CCCCCCC1=C(c2ccc(F)c(O)c2)CCCc2cc(O)ccc21)CCCCC[S+]([O-])CCCC(F)(F)C(F)(F)F (racemic) [Example 32, 8-(4-Fluoro-3-hydroxyphenyl)-9-[6-(methyl{5-[(RS)-(4,4,5,5,5-pentafluoropentyl)sulphinyl]pentyl}amino)hexyl]-6,7-dihydro-5H-benzo[7]annulen-3-ol]
8.30 | CN(CCCCCCC1=C(c2ccc(F)c(O)c2)CCCc2cc(O)ccc21)CCCCCC[S+]([O-])CCCC(F)(F)C(F)(F)F (racemic) [Example 34, 8-(4-Fluoro-3-hydroxyphenyl)-9-[6-(methyl{6-[(RS)-(4,4,5,5,5-pentafluoropentyl)sulphinyl]hexyl}amino)hexyl]-6,7-dihydro-5H-benzo[7]annulen-3-ol]
7.57 | CN(CCCCCC1=C(c2cccnc2)CCCc2cc(O)ccc21)CCC[S+]([O-])CCCC(F)(F)C(F)(F)F (racemic) [Example 40, 9-[5-(Methyl{3-[(RS)-(4,4,5,5,5-pentafluoropentyl)sulphinyl]propyl}amino)pentyl]-8-(3-pyridyl)-6,7-dihydro-5H-benzo[7]annulen-3-ol]
8.10 | CN(CCCCCCC1=C(c2cccnc2)CCCc2cc(O)ccc21)CCC[S+]([O-])CCCC(F)(F)C(F)(F)F (racemic) [Example 43, 9-[6-(Methyl{3-[(RS)-(4,4,5,5,5-pentafluoropentyl)sulphinyl]propyl}amino)hexyl]-8-(3-pyridyl)-6,7-dihydro-5H-benzo[7]annulen-3-ol]
8.15 | [O-][S+](CCCNCCCCCC1=C(c2ccccc2)CCCc2cc(O)ccc21)CCCC(F)(F)C(F)(F)F (racemic) [Example 50, 9-[5-({3-[(RS)-(4,4,5,5,5-Pentafluoropentyl)sulphinyl]propyl}amino)pentyl]-8-phenyl-6,7-dihydro-5H-benzo[7]annulen-3-ol]
8.70 | CN(CCCCCCC1=C(c2cccc(O)c2)CCCc2cc(O)ccc21)CCC[S+]([O-])CCC(F)(F)F (racemic) [Example 55, 8-(3-Hydroxyphenyl)-9-[6-(methyl{3-[(RS)-(3,3,3-trifluoropropyl)sulphinyl]propyl}amino)hexyl]-6,7-dihydro-5H-benzo[7]annulen-3-ol]
8.00 | CN(CCCCCCC1=C(c2ccccc2)CCCc2cc(O)ccc21)CCC[S+]([O-])CCC(F)(F)F (racemic) [Example 59, 9-[6-(Methyl{3-[(RS)-(3,3,3-trifluoropropyl)sulphinyl]propyl}amino)hexyl]-8-phenyl-6,7-dihydro-5H-benzo[7]annulen-3-ol]
8.05 | CN(CCCCCCC1=C(c2ccccc2)CCCc2cc(O)ccc21)CCC[S+]([O-])CCC(F)(F)C(F)(F)F (racemic) [Example 61, 9-[6-(Methyl{3-[(RS)-(3,3,4,4,4-pentafluorobutyl)sulphinyl]propyl}amino)hexyl]-8-phenyl-6,7-dihydro-5H-benzo[7]annulen-3-ol]
8.30 | CN(CCCCCCC1=C(c2ccccc2)CCCc2cc(O)ccc21)CCCC[S+]([O-])CCCC(F)(F)C(F)(F)F (racemic) [Example 66, 9-[6-(Methyl{4-[(RS)-(4,4,5,5,5-pentafluoropentyl)sulphinyl]butyl}amino)hexyl]-8-phenyl-6,7-dihydro-5H-benzo[7]annulen-3-ol]
8.30 | CCN(CCCCCCC1=C(c2ccccc2)CCCc2cc(O)ccc21)CCC[S+]([O-])CCCC(F)(F)C(F)(F)F (racemic) [Example 68, 9-[6-(Ethyl{3-[(RS)-(4,4,5,5,5-pentafluoropentyl)sulphinyl]propyl}amino)hexyl]-8-phenyl-6,7-dihydro-5H-benzo[7]annulen-3-ol]
8.70 | [O-][S+](CCCN(CCO)CCCCCCC1=C(c2ccccc2)CCCc2cc(O)ccc21)CCCC(F)(F)C(F)(F)F (racemic) [Example 70, 9-{6-[(2-Hydroxyethyl){3-[(RS)-(4,4,5,5,5-pentafluoropentyl)sulphinyl]propyl}amino]hexyl}-8-phenyl-6,7-dihydro-5H-benzo[7]annulen-3-ol]
8.40 | [O-][S+](CCCN(CCCO)CCCCCCC1=C(c2ccccc2)CCCc2cc(O)ccc21)CCCC(F)(F)C(F)(F)F (racemic) [Example 72, 9-{6-[(3-Hydroxypropyl){3-[(RS)-(4,4,5,5,5-pentafluoropentyl)sulphinyl]propyl}amino]hexyl}-8-phenyl-6,7-dihydro-5H-benzo[7]annulen-3-ol]
8.52 | CC(C)(O)CN(CCCCCCC1=C(c2ccccc2)CCCc2cc(O)ccc21)CCC[S+]([O-])CCCC(F)(F)C(F)(F)F (racemic) [Example 74, 9-{6-[(2-Hydroxy-2-methylpropyl){3-[(RS)-(4,4,5,5,5-pentafluoropentyl)sulphinyl]propyl}amino]hexyl}-8-phenyl-6,7-dihydro-5H-benzo[7]annulen-3-ol]
7.64 | CCN(CCCCCCC1=C(c2ccccc2)CCCc2cc(O)ccc21)CCC[S+]([O-])CCC(F)(F)F (racemic) [Example 76, 9-[6-(Ethyl{3-[(RS)-(3,3,3-trifluoropropyl)sulphinyl]propyl}amino)hexyl]-8-phenyl-6,7-dihydro-5H-benzo[7]annulen-3-ol]
